# Measurements published in ChEMBL document CHEMBL3600359, “Verruculides A and B, two new protein tyrosine phosphatase 1B inhibitors from an Indonesian ascidian-derived Penicillium verruculosum” (Bioorg Med Chem Lett, 2015).
# Calls of active or inactive are those of the source. The calls are words filed in the database; no cut-off is given here.
# How the values were obtained:
# [1] = biological target: T1, Tyrosine-protein phosphatase non-receptor type 1 (Homo sapiens, UniProt P18031); test: Inhibition of PTP1B (unknown origin)
# T1 sequence (P18031 whole entry): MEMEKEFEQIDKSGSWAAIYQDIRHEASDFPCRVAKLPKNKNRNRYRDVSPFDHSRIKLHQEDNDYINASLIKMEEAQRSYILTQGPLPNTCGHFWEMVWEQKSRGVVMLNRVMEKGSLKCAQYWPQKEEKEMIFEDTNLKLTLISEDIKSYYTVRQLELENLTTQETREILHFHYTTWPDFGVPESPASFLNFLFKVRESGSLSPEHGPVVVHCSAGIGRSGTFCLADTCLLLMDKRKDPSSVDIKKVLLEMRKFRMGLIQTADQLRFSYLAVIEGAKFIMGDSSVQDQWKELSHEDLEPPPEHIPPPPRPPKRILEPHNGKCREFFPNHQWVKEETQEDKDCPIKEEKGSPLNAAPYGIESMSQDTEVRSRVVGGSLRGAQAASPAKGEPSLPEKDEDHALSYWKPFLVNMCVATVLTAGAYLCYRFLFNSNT
# [2] = biological target: T2, Tyrosine-protein phosphatase non-receptor type 1 (Homo sapiens) (UniProt P18031); conditions: 23.1 uM
# T2 sequence (whole entry): T1 sequence (P18031 whole entry)
# Description: Inhibition of PTP1B (unknown origin) at 23.1 uM
# [3] = biological target: T2, Tyrosine-protein phosphatase non-receptor type 1 (Homo sapiens); test: Inhibition of PTP1B (unknown origin) at 20.7 uM
SMILES,IC50 [1] [µM],further results
C[C@@H]1Cc2c3c(cc(O)c2C(=O)O1)O[C@@]1(C)CC[C@H]2C(C)(C)C(=O)C=C[C@]2(C)[C@@H]1C3,8.4,–
C/C(=C\Cc1c(O)cc(O)c2c1C[C@@H](C)OC2=O)CC/C=C(\C)CCC(O)C(C)(C)O (stereo not given in full),–,inhibition [2]: 40%
CC(=O)O[C@@H]1c2c3c(cc(O)c2C(=O)O[C@@H]1C)O[C@@]1(C)[C@@H](O)C[C@H]2C(C)(C)C(=O)C=C[C@]2(C)[C@@H]1C3,–,inhibition [3]: inactive
C[C@H]1OC(=O)c2c(O)cc3c(c2[C@H]1O)C[C@H]1[C@@]2(C)C=CC(=O)C(C)(C)[C@@H]2C[C@H](O)[C@]1(C)O3,8.5,–
C[C@@H]1Cc2c3c(cc(O)c2C(=O)O1)O[C@@]1(C)[C@@H](O)C[C@H]2C(C)(C)C(=O)CC[C@]2(C)[C@@H]1C3,14.9,–
